20 molecules from PubChem BioAssay AID330 (DTP/NCI, 2004) can be followed below.

In this assay the test system is P388 leukemia ip, CD2F1 mice, survival T/C. As to the kind of experiment: NCI In Vivo Anticancer Drug Screen. Data for tumor model P388 Leukemia (intraperitoneal) in CD2F1 (CDF1) mice. Particulars: endpoint: median survival time, higher = longer survival. In a few lines:
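Mice carrying the transplanted tumor received test compound or vehicle. Survival was recorded in each group, and the value is the treated-group measurement divided by that of the vehicle-treated control group.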

The mark [1] stands for this setting: dose: 50.0 mg/kg/injection, schedule: Q01DX005 (ip), vehicle: Klucel (hydroxypropylcellulose) (HPC).
Setting [2] is: dose: 100.0 mg/kg/injection, schedule: Q01DX005 (ip), vehicle: Klucel (hydroxypropylcellulose) (HPC).
The mark [3] stands for this setting: dose: 200.0 mg/kg/injection, schedule: Q01DX005 (ip), vehicle: Klucel (hydroxypropylcellulose) (HPC).
Setting [4] is: dose: 50.0 mg/kg/injection, schedule: Q01DX009 (ip), vehicle: saline with Tween-80.
The mark [5] stands for this setting: dose: 60.0 mg/kg/injection, schedule: Q01DX005 (ip), vehicle: Klucel (hydroxypropylcellulose) (HPC).
The mark [6] stands for this setting: dose: 120.0 mg/kg/injection, schedule: Q01DX005 (ip), vehicle: Klucel (hydroxypropylcellulose) (HPC).
[7] abbreviates: dose: 240.0 mg/kg/injection, schedule: Q01DX005 (ip), vehicle: Klucel (hydroxypropylcellulose) (HPC).
[8] abbreviates: dose: 50.0 mg/kg/injection, schedule: Q01DX009 (ip), vehicle: Klucel (hydroxypropylcellulose) (HPC).
Where [9] appears, read: dose: 100.0 mg/kg/injection, schedule: Q01DX009 (ip), vehicle: Klucel (hydroxypropylcellulose) (HPC).
Where [10] appears, read: dose: 100.0 mg/kg/injection, schedule: Q01DX001 (ip), vehicle: Klucel (hydroxypropylcellulose) (HPC).
[11] abbreviates: dose: 200.0 mg/kg/injection, schedule: Q01DX001 (ip), vehicle: Klucel (hydroxypropylcellulose) (HPC).
Setting [12] is: dose: 400.0 mg/kg/injection, schedule: Q01DX001 (ip), vehicle: Klucel (hydroxypropylcellulose) (HPC).
Where [13] appears, read: dose: 50.0 mg/kg/injection, schedule: Q01DX009 (ip), vehicle: saline.
Setting [14] is: dose: 100.0 mg/kg/injection, schedule: Q01DX009 (ip), vehicle: saline.
Setting [15] is: dose: 200.0 mg/kg/injection, schedule: Q01DX009 (ip), vehicle: saline.

Where “and” joins values, the source holds several entries; their conditions need not be identical. Equal entries are not always repeated. Inconclusive results and toxic doses are left out.

For `O=C1C(=Cc2ccccc2O)C(=O)N(c2ccccc2)C(=S)N1c1ccccc1`, the T/C under setting [1] was 100 % of control, the T/C under setting [2] is 100 % of control and the T/C under setting [3] is 100 % of control.

With `Cn1c(/C=N/N2CCOCC2)cnc1[N+](=O)[O-]`, the T/C runs as follows: under setting [4], 106 % of control; (dose: 100.0 mg/kg/injection, schedule: Q01DX009 (ip), vehicle: saline with Tween-80) 109 % of control; (dose: 200.0 mg/kg/injection, schedule: Q01DX009 (ip), vehicle: saline with Tween-80) 110 % of control.

Turning to `O=C(CCCCCS)NCCCCCCCCCCNC(=O)CCCCCS`, the T/C reads like this: (dose: 100.0 mg/kg/injection, schedule: Q04DX002 (ip), vehicle: Klucel (hydroxypropylcellulose) (HPC)) 97 % of control; (dose: 200.0 mg/kg/injection, schedule: Q04DX002 (ip), vehicle: Klucel (hydroxypropylcellulose) (HPC)) 92 % of control; (dose: 400.0 mg/kg/injection, schedule: Q04DX002 (ip), vehicle: Klucel (hydroxypropylcellulose) (HPC)) 90 % of control.

On to `Cc1nc2c(sc(=N)n2-c2ccccc2)c(=O)[nH]1`, for which the T/C (dose: 12.5 mg/kg/injection, schedule: Q01DX009 (ip), vehicle: saline with Tween-80) was 115 % of control; the T/C (dose: 25.0 mg/kg/injection, schedule: Q01DX009 (ip), vehicle: saline with Tween-80) was 106 % of control; the T/C under setting [4] was 103 % of control.

For the molecule `CCOC(=O)c1[nH]c(=O)c2cccnc2c1O`, the T/C by setting is: (dose: 30.0 mg/kg/injection, schedule: Q01DX005 (ip), vehicle: Klucel (hydroxypropylcellulose) (HPC)) 97 % of control; under setting [5], 94 % of control and 98 % of control; under setting [6], 106 % of control and 96 % of control; under setting [7], 113 % of control.

Take `COc1cccc2c1C(=O)c1c(O)c3c(c(O)c1C2=O)C[C@@](O)(C(O)CO)C[C@@H]3OC1CC(N)C(O)C(C)O1` (stereo not given in full): the T/C is 155 % of control and 150 % of control (dose: 0.78 mg/kg/injection, schedule: Q01DX009 (ip), vehicle: water); 174 % of control and 168 % of control (dose: 1.56 mg/kg/injection, schedule: Q01DX009 (ip), vehicle: water); 183 % of control (dose: 2.0 mg/kg/injection, schedule: Q01DX009 (ip), vehicle: water); 192 % of control and 200 % of control (dose: 3.13 mg/kg/injection, schedule: Q01DX009 (ip), vehicle: water); 211 % of control (dose: 4.0 mg/kg/injection, schedule: Q01DX009 (ip), vehicle: water); 260 % of control and 197 % of control and 264 % of control (dose: 6.25 mg/kg/injection, schedule: Q01DX009 (ip), vehicle: water). Also, the T/C by setting is: (dose: 6.25 mg/kg/injection, schedule: Q04DX003 (ip), vehicle: water) 116 % of control; (dose: 8.0 mg/kg/injection, schedule: Q01DX009 (ip), vehicle: water) 266 % of control; (dose: 12.5 mg/kg/injection, schedule: Q01DX009 (ip), vehicle: water) 95 % of control; (dose: 16.0 mg/kg/injection, schedule: Q01DX009 (ip), vehicle: water) 94 % of control; (dose: 25.0 mg/kg/injection, schedule: Q04DX003 (ip), vehicle: water) 198 % of control; (dose: 50.0 mg/kg/injection, schedule: Q04DX003 (ip), vehicle: water) 172 % of control.

For the molecule `CN(C)CCCC12OC(c3ccccc31)C(O)c1ccccc12` (stereo not given), the T/C runs as follows: (dose: 25.0 mg/kg/injection, schedule: Q01DX009 (ip), vehicle: Klucel (hydroxypropylcellulose) (HPC)) 102 % of control; under setting [8], 103 % of control; under setting [9], 105 % of control; (dose: 200.0 mg/kg/injection, schedule: Q01DX009 (ip), vehicle: Klucel (hydroxypropylcellulose) (HPC)) 94 % of control.

In the case of `N#C/C(=C\C=C\c1ccccc1)C(N)=O`, the T/C was 104 % of control (dose: 50.0 mg/kg/injection, schedule: Q04DX003 (ip), vehicle: saline with Tween-80); 104 % of control (dose: 100.0 mg/kg/injection, schedule: Q04DX003 (ip), vehicle: saline with Tween-80); 109 % of control (dose: 200.0 mg/kg/injection, schedule: Q04DX003 (ip), vehicle: saline with Tween-80).

On to `O=C(Nc1ccccc1)C1(Cl)CCCCC1`, for which the T/C runs as follows: under setting [10], 90 % of control; under setting [11], 92 % of control; under setting [12], 91 % of control.

Take `O=[N+]([O-])c1ccc(OS(=O)(=O)/C=C/c2ccccc2)cc1`: the T/C reads like this: under setting [10], 99 % of control; under setting [11], 100 % of control; under setting [12], 94 % of control.

For the molecule `CC1=C(N2CC2)C(=O)c2ccccc2C1=O`, the T/C under setting [8] is 93 % of control and the T/C under setting [9] is 90 % of control.

As to `CCCCCCCCC(CCc1ccccc1)CCc1ccccc1`, the T/C reads like this: (dose: 50.0 mg/kg/injection, schedule: Q01DX001 (ip), vehicle: saline with Tween-80) 88 % of control; (dose: 200.0 mg/kg/injection, schedule: Q01DX001 (ip), vehicle: saline with Tween-80) 100 % of control.

For the molecule `O=C(O)C(=O)O`, the T/C is, setting by setting: (dose: 12.5 mg/kg/injection, schedule: Q01DX005 (ip), vehicle: saline) 98 % of control; (dose: 25.0 mg/kg/injection, schedule: Q01DX005 (ip), vehicle: saline) 97 % of control; (dose: 50.0 mg/kg/injection, schedule: Q01DX005 (ip), vehicle: saline with Tween-80) 92 % of control.

For the molecule `CS(=O)(=O)N(C=O)c1ccccc1`, the T/C is 110 % of control under setting [13], 100 % of control under setting [14] and 96 % of control under setting [15].

Regarding `[Cl][Pt+2][Cl].[NH-]C(C(=O)O)C([NH-])C(=O)O` (stereo not given), the T/C by setting is: (dose: 6.25 mg/kg/injection, schedule: Q04DX002 (ip), vehicle: saline) 96 % of control; (dose: 12.5 mg/kg/injection, schedule: Q04DX002 (ip), vehicle: saline) 96 % of control; (dose: 25.0 mg/kg/injection, schedule: Q04DX002 (ip), vehicle: saline) 100 % of control; (dose: 50.0 mg/kg/injection, schedule: Q04DX002 (ip), vehicle: saline) 117 % of control; (dose: 100.0 mg/kg/injection, schedule: Q04DX002 (ip), vehicle: saline) 101 % of control; (dose: 200.0 mg/kg/injection, schedule: Q04DX002 (ip), vehicle: saline) 97 % of control.

In the case of `Clc1ccc(N=Cc2ccc(C=Nc3ccc(Cl)cc3Cl)cc2)c(Cl)c1`, the T/C was 94 % of control (dose: 12.5 mg/kg/injection, schedule: Q01DX009 (ip), vehicle: saline); 94 % of control (dose: 25.0 mg/kg/injection, schedule: Q01DX009 (ip), vehicle: saline); 100 % of control and 105 % of control under setting [13]; 88 % of control under setting [14]; 92 % of control under setting [15].

Take `CC(C)(C)OC(=O)CS(=O)(=O)Nc1ccccc1O`: the T/C was 106 % of control under setting [5], 86 % of control under setting [6] and 97 % of control under setting [7].

Turning to `COc1ccc(C(O)OC2CC3C=CC2C3)cc1` (stereo not given), the T/C is, setting by setting: (dose: 12.5 mg/kg/injection, schedule: Q01DX009 (ip), vehicle: other) 114 % of control; (dose: 25.0 mg/kg/injection, schedule: Q01DX009 (ip), vehicle: other) 110 % of control; (dose: 50.0 mg/kg/injection, schedule: Q01DX009 (ip), vehicle: other) 114 % of control; (dose: 100.0 mg/kg/injection, schedule: Q01DX009 (ip), vehicle: other) 114 % of control; (dose: 200.0 mg/kg/injection, schedule: Q01DX009 (ip), vehicle: other) 111 % of control.

For `CCOC(=O)c1ccnc2ccc3ccccc3c12`, the T/C is 105 % of control under setting [1], 102 % of control under setting [2] and 96 % of control under setting [3].

On to `COC(C(=O)N/C(N)=N/O)c1c(Cl)cccc1Cl` (stereo not given), for which the T/C was 98 % of control under setting [1] and 109 % of control under setting [2].
